# Measurements published in patent publication US20040097577A1 (priority 2001, published 2004).
# What was measured:
# children = conditions: cited from earlier work
# [1] = system: patients in the age ranging from 6 to 14 years; assay: pilot study, effect of melatonin on sleep latency (sleep logs, CGI), melatonin versus placebo; format: in vivo, human
# Description: In a pilot study, nine patients in the age ranging from 6 to 14 years were run through a protocol to determine feasibility. A sample of four sleep logs, illustrating response at each of the protocol was determined. […] Patients tolerated the protocol, and parents were able to reliably complete the sleep logs. Some parents had to be trained to do so over several visits. Parents whose children fell asleep extremely late, could not tolerate staying up to find out when they actually fell asleep, and had to be excluded.
# [2] = system: children, most of whom were neurologically multiply disabled; conditions: 2 to 10 mg of oral melatonin at bedtime; cited from earlier work
compound,measurement,setting,value
"COc1ccc2[nH]cc(CCNC(C)=O)c2c1 [melatonin, N-acetyl-5-methoxytryptamine]",adverse effects on long-term use,children; children who received melatonin for several years,without adverse effects
same,average onset of sleep after melatonin administration,"children; children, 2.5 to 7.5 mg PO once daily before expected bedtime",≤ 1 h
same,CGI data,[1]; melatonin versus placebo,not significant
same,difference in response between the melatonin and placebo,"[1]; nine patients, sleep logs, with sleep hygiene",significant difference in response (p=0.03)
same,adverse side-effects,[2],no adverse side-effects
same,"health, behavioural and social benefits",[2],significant
